Laboratory results: patent US10857105B2, “Compounds and compositions for intracellular delivery of therapeutic agents” (ModernaTX, Inc., priority 2017, dated 2020)

What was measured:
[1] = tested on: modified luciferase; assay: Luciferase expression in liver, lung, spleen and femur 6 hours after intravenous administration to mice; assay type: in vivo; details: 6 hours after intravenous 0.5 mpk, mice
Outline: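 Mice (n=3) got a single 0.5 mpk IV dose of each nanoparticle composition, with MC3 and PBS controls alongside. Organ luminescence flux was read 6 h post-dose.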

[2] = Encapsulation efficiency of RNA in nanoparticle compositions (RIBOGREEN assay); assay type: physicochemical
Outline: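 Lipid nanoparticles (ionisable lipid:DSPC:cholesterol:PEG-DMG 50:10:38.5:1.5 mol %) carrying N1-methylpseudouridine luciferase or hEPO mRNA diluted to about 5 μg/mL in TE, pH 7.5, with or without 2% Triton X-100, 15 min at 37° C. RiboGreen fluorescence (ex ~480, em ~520 nm) blank-subtracted; free RNA = intact/disrupted signal.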

[3] = tested on: IL-6, IP-10; assay: Cytokine induction (IL-6, IP-10) in mice 6 hours after intravenous administration; assay type: in vivo; parameters: unit not given here; details: intravenous 0.5 mpk
Description: The introduction of foreign material into a mammalian body induces an innate immune response that promotes cytokine production. Such immune responses to, for example, nanoparticle compositions including therapeutic and/or prophylactics, are undesirable. The induction of certain cytokines is thus measured to evaluate the […] of nanoparticle compositions. The concentrations of various cytokines in mice upon intravenous administration of nanoparticle compositions presented in Table 1A at a dosage of 0.5 mpk was measured at 6 hours. The standard MC3 formulation and a PBS control were also tested. As is evident in Table 7, IL-6 induction was highest for compositions including Compounds 1, 3, 9, 19, and 26, while IP-10 induction was highest for compositions including Compounds 3, 4, 7, 20, and 26. IL-6 induction was lowest for compositions including Compounds 4, 11, 12, and 28. IP-10 induction was lowest for compositions including Compounds 10, 11, 12, 13, 15, 17, and 18.

[4] = tested on: luciferase (Luc) mRNA; assay: Luciferase expression after intramuscular administration to mice; assay type: in vivo; details: intramuscular; for Novel lipid/MC3 expression ratio, i.m. Luc: luciferase, 6 hr. time point, relative to MC3 formulation
Description: The numbers 1-7 in this figure correspond to MC3, Compounds 168-170, and 173-175 respectively.
FIGS. 18A and 18B show the results of luciferase expression measured upon intramuscular administration of various nanoparticle compositions to CD-1 mice at 0.01 mpk. FIG. 18A is a bar graph showing total flux at 6 hr after administration. The numbers above each bar indicate the expression ratio relative to MC3. […] Numbers 1-11 in the Figures refer to compositions containing the following: 1: MC3, 2: Compound 143, 3: Compound 49; 4: Compound 113; 5: Compound 61; 6: Compound 72; 7: Compound 75; 8: Compound 71; 9: Compound 128; 10: Compound 156; 11: Compound 157.
The numbers 1-9 in this figure correspond to MC3, and Compounds 178, 181, 182, 218, 198, 200, 233, and 239, respectively.
The total flux (measured by area under the curve, AUC) induced by administration of a formulation including a given lipid relative to that induced by administration of a formulation including MC3 was also measured for several lipids.
Sample formulations including modified luciferase (Luc) mRNA prepared and administered intramuscularly and the resulting expression and immunogenicity were evaluated simultaneously. Formulations including compounds according to Formula (I), (IA), (IB), (II), (IIa), (IIb), (IIc), (IId), (IIe), (IIf), (IIg), or (III) were prepared and administered at dose of and 0.01 mpk.

[5] = Particle size and polydispersity index of nanoparticle compositions (Zetasizer Nano ZS); assay type: physicochemical
Outline: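 Formulations of ionizable lipid, DSPC, cholesterol and PEG-DMG (50:10:38.5:1.5 mol %) carrying Luc or hEPO mRNA with all uridines as N1-methyl pseudouridine. Dynamic light scattering in 1×PBS gave particle size and polydispersity; zeta potential read in 15 mM PBS.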

[6] = tested on: luciferase (Luc) mRNA; assay: Luciferase expression (whole body bioluminescence) after intravenous administration to mice; assay type: in vivo; details: for Novel lipid/MC3 expression ratio, i.v. / Novel lipid/MC3 ratio, i.v.: intravenous, luciferase; for Novel lipid/MC3 expression ratio, i.v.: 6 hr. time point, relative to MC3 formulation; for Novel lipid/MC3 ratio, i.v.: Table 3G, 6 hr. timepoint, relative to MC3
Outline: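 Luc mRNA nanoparticles were given IV at 0.5 mg/kg to groups of six mice, and whole-body bioluminescent flux was imaged 3, 6 and 24 h post-dose. Flux AUC for each lipid formulation was reported as a ratio to the MC3 reference formulation.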

[7] = Lipid clearance: mouse liver tissue level and % dose remaining in liver after intravenous administration; assay type: in vivo; details: mouse, liver, 0.5 mg/kg
[8] = Table 1A, lipid:DSPC:cholesterol:PEG-DMG 50:10:38.5:1.5 mol %
[9] = Table 1E, compositions for subcutaneous administration
[10] = Table 1D, compositions for subcutaneous administration, # formulated with hEPO mRNA
[11] = Table 1B, formulated with hEPO mRNA

| SMILES | EE [2, 8] | Size [5, 8] | concentration at 6 h [7] | concentration at 24 h [7] | other results |
| --- | --- | --- | --- | --- | --- |
| CCCCCCCCCN(CCCO)CCCCCCCC(=O)OC(CCCCCCCC)CCCCCCCC [Compound 7, Heptadecan-9-yl 8-((3-hydroxypropyl)(nonyl)amino)octanoate] | 86.10% | 118.9 nm | – | – | Total Flux, Liver [1]: 2.49E+09; Total Flux, Lung [1]: 3.95E+07; Total Flux, Spleen [1]: 4.83E+08; Cytokine induction, IL-6 [3]: 116.35; Cytokine induction, IP-10 [3]: 4959.16; Novel lipid/MC3 expression ratio, i.m. Luc [4]: 1.10; Novel lipid/MC3 expression ratio, i.v. [6]: 0.88 |
| CCCCCCCCCOC(=O)CCCCCCCN(CCO)CCCCCCCC(=O)OC(CCC1CC1CCCC)CCC1CC1CCCC (stereo not drawn) [Compound 160, 1,5-Bis(2-butylcyclopropyl)pentan-3-yl 8-((2-hydroxyethyl)(8-(nonyloxy)-8-oxooctyl)amino)octanoate] | 94.0% | 89.0 nm | 51.5 ng/g | 0 ng/g | – |
| CCCCCCCCC(CCCCCCCC)C(=O)OCCCCCCCN(CCO)C(C)CCCCCCCCOC(=O)CCCCCCC (stereo not drawn) [Compound 162, 7-((2-Hydroxyethyl)(10-(octanoyloxy)decan-2-yl)amino)heptyl 2-octyldecanoate] | 94.1% | 72.7 nm | 261 ng/g | 0 ng/g | – |
| CCCCCCCCCOC(=O)C(C)CCCCCCN(CCO)CCCCCCCOC(=O)C(CCCCCCCC)CCCCCCCC (stereo not drawn) [Compound 163, 7-((2-Hydroxyethyl)(7-methyl-8-(nonyloxy)-8-oxooctyl)amino)heptyl 2-octyldecanoate] | 93.2% | 88.3 nm | 32100 ng/g | 17900 ng/g | Size [5, 10]: 78.0 nm; Novel lipid/MC3 ratio, i.v. [6]: 3.45 |
| CCCCCCCCCC(C)(O)CCCCCCCCN(CCO)CCCCCCCC(=O)OC(CCCCCCCC)CCCCCCCC (stereo not drawn) [Compound 171, Heptadecan-9-yl 8-((9-hydroxy-9-methyloctadecyl)(2-hydroxyethyl)amino)octanoate] | 85.0% | 100.5 nm | 47000 ng/g | 32800 ng/g | – |
| CCCCCCCCCOC(=O)CCCCCCCN(CCO)CCCCCCCC(=O)OC(COCCCCCC)COCCCCCC [Compound 183, 1,3-Bis(hexyloxy)propan-2-yl 8-((2-hydroxyethyl)(8-(nonyloxy)-8-oxooctyl)amino)octanoate] | 32.3% | 245.3 nm | 69.9 ng/g | 0 ng/g | – |

Further lines, with some results ahead:

| EE [2, 8] | Size [5, 8] | concentration at 6 h [7] | concentration at 24 h [7] | SMILES | other results |
| --- | --- | --- | --- | --- | --- |
| 92.68% | 104.5 nm | – | – | CCCCCCCCCOC(=O)CCCCCCCN(CCO)CCCCCCCCCC(=O)OC(CCCCCCCC)CCCCCCCC [Compound 23, Heptadecan-9-yl 10-((2-hydroxyethyl)(8-(nonyloxy)-8-oxooctyl)amino) decanoate] | Cytokine induction, IL-6 [3]: 94.00; Cytokine induction, IP-10 [3]: 1015.95; Novel lipid/MC3 expression ratio, i.m. Luc [4]: 0.30; Size [5, 9]: 70.5 nm; Novel lipid/MC3 expression ratio, i.v. [6]: 0.04 |
| 94.4% | – | 24800 ng/g | 13600 ng/g | CCCCCCCCCC(=O)OC(C)CCCCCCN(CCO)CCCCCCCC(=O)OC(CCCCCCCC)CCCCCCCC (stereo not drawn) [Compound 98, 8-((8-(Heptadecan-9-yloxy)-8-oxooctyl)(2-hydroxyethyl)amino)octan-2-yl decanoate] | Size [5, 10]: 74.8 nm; Novel lipid/MC3 ratio, i.v. [6]: 3.16 |
| – | 81.1 nm | – | – | CCCCCCCCCOC(=O)CCCCCCCN(CCCCCCCC(=O)OC(CCCCCCCC)CCCCCCCC)CCCNS(C)(=O)=O [Compound 109, Heptadecan-9-yl 8-((3-(methylsulfonamido)propyl)(8-(nonyloxy)-8-oxooctyl)amino)octanoate] | Total Flux, Liver [1]: 8.17E+08; Total Flux, Lung [1]: 6.03E+06; Total Flux, Spleen [1]: 4.81E+07; EE [2, 11]: 98.29%; Total flux 6 hours after intramuscular administration, 0.01 mpk Dose ([4]; Luc mRNA, 0.01 mpk, 6 hours): 1.18E+08 p/s; Size [5, 11]: 75 nm; Size [5, 9]: 67.0 nm; Novel lipid/MC3 expression ratio, i.v. [6]: 0.35 |
| 96.04% | 61 nm | – | – | CCCCCCCCCOC(=O)CCCCCCCN(CCCCCCCC(=O)OC(CCCCCCCC)CCCCCCCC)C(C)CO (stereo not drawn) [Compound 157, Heptadecan-9-yl 8-((1-hydroxypropan-2-yl)(8-(nonyloxy)-8-oxooctyl)amino)octanoate] | Total Flux, Liver [1]: 2.27E+09; Total Flux, Lung [1]: 6.70E+06; Total Flux, Spleen [1]: 5.15E+07; Novel lipid/MC3 expression ratio, i.m. Luc [4]: 0.79; AUC ([6]; intravenous administration (Table 3D)): 2.481E+011 p/s*h |
| 94.3% | 67.6 nm | 187 ng/g | 0 ng/g | CCCCCCCCC(CCCCCCCC)OC(=O)CCCCCCCN(CCO)C(C)CCCCCCCCOC(=O)CCCCCCC (stereo not drawn) [Compound 161, Heptadecan-9-yl 8-((2-hydroxyethyl)(10-(octanoyloxy)decan-2-yl)amino)octanoate] | – |
| 91.2% | 84.5 nm | 36000 ng/g | 24200 ng/g | CCCCCCCCCOC(=O)C(C)CCCCCCN(CCO)CCCCCCCC(=O)OC(CCCCCCCC)CCCCCCCC (stereo not drawn) [Compound 164, Nonyl 8-((8-(heptadecan-9-yloxy)-8-oxooctyl)(2-hydroxyethyl)amino)-2-methyloctanoate] | Size [5, 10]: 75.7 nm; Novel lipid/MC3 ratio, i.v. [6]: 1.24 |
| 95.4% | 77.3 nm | 16000 ng/g | 2990 ng/g | CCCCCCCCC(CCCCCCCC)OC(=O)CCCCCCCN(CCO)CCCCCCCC(=O)O[C@H](C)CCCCCCCC [Compound 172, (R)-Decan-2-yl 8-((8-(heptadecan-9-yloxy)-8-oxooctyl)(2-hydroxyethyl)amino)octanoate] | – |
| 94.2% | 77.2 nm | 260 ng/g | 0 ng/g | CCCCCCCCC(CCCCCCCC)OC(=O)CCCCCCCN(CCO)CCCCCCCC(=O)OCC(C)CCCCCCC (stereo not drawn) [Compound 184, Heptadecan-9-yl 8-((2-hydroxyethyl)(8-((2-methylnonyl)oxy)-8-oxooctyl)amino)octanoate] | EE [2, 11]: 96.5%; Size [5, 11]: 85.8 nm |
| 98.3% | 69.6 nm | 31200 ng/g | 27000 ng/g | CCCCCCCCCCCOC(=O)CCCCCN(CCO)CCCCCC(=O)OC(CCCCCCCCCC)CCCCCCCCCC [Compound 185, Henicosan-11-yl 6-((2-hydroxyethyl)(6-oxo-6-(undecyloxy)hexyl)amino)hexanoate] | – |
| 87.2% | 92.2 nm | 42.8 ng/g | 0 ng/g | CCCCCCCOC(=O)CCCCCCCCCN(CCO)CCCCCCCCCC(=O)OC(CCCCCC)CCCCCC [Compound 186, Heptyl 10-((2-hydroxyethyl)(10-oxo-10-(tridecan-7-yloxy)decyl)amino)decanoate] | – |
